For test [1], the system named is Monocotyledonous and dicotyledonous test plants. Description: Example B1 herbicidal action, application post-emergence (Table B1a). The note with it: 250 g/ha, evaluated after 3 weeks, scale 0-10. It counts as in vivo. On the procedure: (§1) Monocotyledonous and dicotyledonous test plants were sown in seed trays in standard soil. Immediately after sowing (pre-emergence) or after 8 to 9 days cultivation (post-emergence), the test compounds were applied by spraying in the form of an aqueous solution derived from the formulation of the technical active ingredient in 0.6 ml acetone and 45 ml formulation solution containing 10.6% Emulsogen EL (CAS RN 61791-12-6), 42.2% N-methylpyrrolidone, 42.2% dipropylene glycol monomethyl ether (CAS RN 34590-94-8) and 0.2% X-77 (CAS RN 11097-66-8). The test plants were then grown in a greenhouse under optimum conditions. After a test duration of 3 weeks (post-emergence) or 4 weeks (pre-emergence), the test was evaluated (10=total damage to plant, 0=no damage to plant).

For test [2] the test system is unchanged. Description: Example B1 herbicidal action, application pre-emergence (Table B1b). Type of test: in vivo. Conditions: 250 g/ha, evaluated after 4 weeks. How it is done:
as §1

Consider `CC1(C)CC(S(=O)(=O)C(F)(F)c2ccccc2[S+]([O-])C(F)(F)F)=NO1` (racemic) [1.69], for which, in test [1], the “herbicidal damage rating, Abutilon” value turned out to be 4; the “herbicidal damage rating, Amaranthus” value is reported as 3; the “herbicidal damage rating, Digitaria” value came to 8; the “herbicidal damage rating, Panicum” value came to 5. Further, in test [1], the “herbicidal damage rating, Setaria” value is reported as 7 and the “herbicidal damage rating, Sida” value was found to be 5. Besides, in test [2], the “herbicidal action (damage rating 0-10), Amaranthus” value (“herbicidal action … Amaranthus” for short) is 5; the “herbicidal action (damage rating 0-10), Digitaria” value (“herbicidal action … Digitaria” below) was 10; the “herbicidal action (damage rating 0-10), Panicum” value (from here on “herbicidal action … Panicum”) amounted to 10; the “herbicidal action (damage rating 0-10), Setaria” value (“herbicidal action … Setaria” for short) is 10. For the same compound, the “herbicidal action (damage rating 0-10), Sida” value (“herbicidal action … Sida” for short) in test [2] is reported as 4.

As to `CC1(C)CC(S(=O)(=O)C(F)(Cl)c2ccccc2C#N)=NO1` (racemic) [1.71], in test [1], the “herbicidal damage rating, Abutilon” value came out at 0; the “herbicidal damage rating, Amaranthus” value came out at 5; the “herbicidal damage rating, Digitaria” value was 8; the “herbicidal damage rating, Panicum” value turned out to be 0. In addition, in test [1], the “herbicidal damage rating, Setaria” value was found to be 3 and the “herbicidal damage rating, Sida” value was 2. In test [2], the “herbicidal action … Amaranthus” value turned out to be 10; the “herbicidal action … Digitaria” value came to 9; the “herbicidal action … Panicum” value was determined as 10; the “herbicidal action … Setaria” value was found to be 9. Besides, the “herbicidal action … Sida” value in test [2] was 5.

With `Cc1ccccc1C(F)(Cl)S(=O)(=O)C1=NOC(C)(C)C1` (racemic) [1.74], in test [1], the “herbicidal damage rating, Abutilon” value is given as 0; the “herbicidal damage rating, Amaranthus” value was 0; the “herbicidal damage rating, Digitaria” value was 8; the “herbicidal damage rating, Panicum” value is listed as 5. In test [1], the “herbicidal damage rating, Setaria” value is 3 and the “herbicidal damage rating, Sida” value is 3. Moreover, in test [2], the “herbicidal action … Amaranthus” value is reported as 5; the “herbicidal action … Digitaria” value stood at 9; the “herbicidal action … Panicum” value amounted to 10; the “herbicidal action … Setaria” value is 9. The “herbicidal action … Sida” value in test [2] is given as 7.

With `CC1(C)CC(S(=O)(=O)C(F)(Cl)c2ccccc2)=NO1` (racemic) [1.75], in test [1], the “herbicidal damage rating, Abutilon” value is recorded as 5; the “herbicidal damage rating, Amaranthus” value stood at 3; the “herbicidal damage rating, Digitaria” value stood at 8; the “herbicidal damage rating, Panicum” value turned out to be 5. Further, in test [1], the “herbicidal damage rating, Setaria” value is reported as 5 and the “herbicidal damage rating, Sida” value is listed as 4. Also, in test [2], the “herbicidal action … Amaranthus” value came to 10; the “herbicidal action … Digitaria” value worked out at 10; the “herbicidal action … Panicum” value was determined as 10; the “herbicidal action … Setaria” value turned out to be 10. Further, in test [2], the “herbicidal action … Sida” value came out at 7.

Take `CC1(C)CC(S(=O)(=O)C(Br)c2c(F)cccc2C(F)(F)F)=NO1` (racemic) [1.80]: in test [1], the “herbicidal damage rating, Abutilon” value was 4; the “herbicidal damage rating, Amaranthus” value stood at 0; the “herbicidal damage rating, Digitaria” value is given as 8; the “herbicidal damage rating, Panicum” value worked out at 5. For the same compound, in test [1], the “herbicidal damage rating, Setaria” value is listed as 7 and the “herbicidal damage rating, Sida” value was 5. In test [2], the “herbicidal action … Amaranthus” value is 10; the “herbicidal action … Digitaria” value was found to be 10; the “herbicidal action … Panicum” value is 10; the “herbicidal action … Setaria” value worked out at 10. Further, the “herbicidal action … Sida” value in test [2] is on record as 9.

As for `CC1(C)CC(S(=O)(=O)C(Br)c2ccccc2C#N)=NO1` (racemic) [1.83], in test [1], the “herbicidal damage rating, Abutilon” value is reported as 5; the “herbicidal damage rating, Amaranthus” value is 5; the “herbicidal damage rating, Digitaria” value was 9; the “herbicidal damage rating, Panicum” value is recorded as 7. Moreover, in test [1], the “herbicidal damage rating, Setaria” value is on record as 7 and the “herbicidal damage rating, Sida” value is given as 3. Besides, in test [2], the “herbicidal action … Amaranthus” value was 9; the “herbicidal action … Digitaria” value came to 9; the “herbicidal action … Panicum” value came out at 10; the “herbicidal action … Setaria” value worked out at 9. Besides, the “herbicidal action … Sida” value in test [2] worked out at 0.

As to `Cc1ccccc1C(F)S(=O)(=O)C1=NOC(C)(C)C1` (racemic) [1.93], in test [1], the “herbicidal damage rating, Abutilon” value turned out to be 3; the “herbicidal damage rating, Amaranthus” value is 7; the “herbicidal damage rating, Digitaria” value is 7; the “herbicidal damage rating, Panicum” value was determined as 8. In test [1], the “herbicidal damage rating, Setaria” value came to 3 and the “herbicidal damage rating, Sida” value was 2. Moreover, in test [2], the “herbicidal action … Amaranthus” value was 8; the “herbicidal action … Digitaria” value is 10; the “herbicidal action … Panicum” value was 10; the “herbicidal action … Setaria” value is 10. Moreover, in test [2], the “herbicidal action … Sida” value worked out at 6.

For `CC1(C)CC(S(=O)(=O)C(F)(Cl)c2ccccc2C(F)(F)F)=NO1` (racemic) [1.95], in test [1], the “herbicidal damage rating, Abutilon” value worked out at 0; the “herbicidal damage rating, Amaranthus” value was determined as 0; the “herbicidal damage rating, Digitaria” value was 8; the “herbicidal damage rating, Panicum” value came to 7. In addition, in test [1], the “herbicidal damage rating, Setaria” value came to 3 and the “herbicidal damage rating, Sida” value stood at 2. Further, in test [2], the “herbicidal action … Amaranthus” value is on record as 7; the “herbicidal action … Digitaria” value was 10; the “herbicidal action … Panicum” value was determined as 10; the “herbicidal action … Setaria” value is 10. Moreover, in test [2], the “herbicidal action … Sida” value was 7.

Regarding `COc1cc(OC)cc(C(F)(Cl)S(=O)(=O)C2=NOC(C)(C)C2)c1` (racemic) [1.96], in test [1], the “herbicidal damage rating, Abutilon” value stood at 5; the “herbicidal damage rating, Amaranthus” value is given as 0; the “herbicidal damage rating, Digitaria” value turned out to be 8; the “herbicidal damage rating, Panicum” value was 5. Besides, in test [1], the “herbicidal damage rating, Setaria” value is listed as 3 and the “herbicidal damage rating, Sida” value is 2. Also, in test [2], the “herbicidal action … Amaranthus” value was found to be 9; the “herbicidal action … Digitaria” value is reported as 10; the “herbicidal action … Panicum” value came out at 10; the “herbicidal action … Setaria” value was determined as 10. Besides, the “herbicidal action … Sida” value in test [2] worked out at 4.

On to `CC1(C)CC(S(=O)(=O)C(F)(I)c2c(F)cccc2F)=NO1` (racemic) [Compound No. 1.61], for which, in test [1], the “herbicidal damage rating, Abutilon” value is reported as 3; the “herbicidal damage rating, Amaranthus” value worked out at 0; the “herbicidal damage rating, Digitaria” value is 7; the “herbicidal damage rating, Panicum” value is 4. In test [1], the “herbicidal damage rating, Setaria” value is given as 6 and the “herbicidal damage rating, Sida” value is 3. Moreover, in test [2], the “herbicidal action … Amaranthus” value is given as 10; the “herbicidal action … Digitaria” value was 10; the “herbicidal action … Panicum” value is 10; the “herbicidal action … Setaria” value was found to be 10. Besides, the “herbicidal action … Sida” value in test [2] is 7.

In the case of `COC(=O)c1ccc(C(F)(F)S(=O)(=O)C2=NOC(C)(C)C2)c(F)c1` [1.119], in test [1], the “herbicidal damage rating, Abutilon” value came out at 3; the “herbicidal damage rating, Amaranthus” value is 5; the “herbicidal damage rating, Digitaria” value came to 3; the “herbicidal damage rating, Panicum” value worked out at 7. Moreover, in test [1], the “herbicidal damage rating, Setaria” value is given as 7 and the “herbicidal damage rating, Sida” value was determined as 4.

`CCOC(=O)c1ccc(C(F)(Cl)S(=O)(=O)C2=NOC(C)(C)C2)c(F)c1` (stereo not shown) [1.128]: in test [1], the “herbicidal damage rating, Abutilon” value was 2; the “herbicidal damage rating, Amaranthus” value is 5; the “herbicidal damage rating, Digitaria” value amounted to 4; the “herbicidal damage rating, Panicum” value is listed as 7. In test [1], the “herbicidal damage rating, Setaria” value came out at 3 and the “herbicidal damage rating, Sida” value came to 0.

Turning to `COc1ccccc1C(F)(Cl)S(=O)(=O)C1=NOC(C)(C)C1` (stereo not shown) [1.142], in test [1], the “herbicidal damage rating, Abutilon” value is 0; the “herbicidal damage rating, Amaranthus” value turned out to be 0; the “herbicidal damage rating, Digitaria” value is reported as 8; the “herbicidal damage rating, Panicum” value worked out at 7. In test [1], the “herbicidal damage rating, Setaria” value is reported as 5 and the “herbicidal damage rating, Sida” value came out at 3.

For `CC1(C)CC(S(=O)(=O)C(F)(Cl)c2ccccc2-c2ccccc2)=NO1` (stereo not shown) [1.149], in test [1], the “herbicidal damage rating, Abutilon” value stood at 4; the “herbicidal damage rating, Amaranthus” value was found to be 4; the “herbicidal damage rating, Digitaria” value is listed as 5; the “herbicidal damage rating, Panicum” value turned out to be 5. In test [1], the “herbicidal damage rating, Setaria” value came to 3 and the “herbicidal damage rating, Sida” value is 5.

With `COCCC(c1c(F)cccc1F)S(=O)(=O)C1=NOC(C)(C)C1` (stereo not shown) [Compound No. 1.03], in test [1], the “herbicidal damage rating, Abutilon” value is reported as 0; the “herbicidal damage rating, Amaranthus” value came out at 9; the “herbicidal damage rating, Digitaria” value was 6; the “herbicidal damage rating, Panicum” value is 9. For the same compound, in test [1], the “herbicidal damage rating, Sida” value was determined as 5.

Source of the values: US8680290B2, “Isoxazoline derivatives and their use as herbicides” (Syngenta Limited, priority 2004, dated 2014).
